Laboratory results reported in US20100317604A1, “FORSYTHIASIDE INJECTION PREPARATION AND PREPARATIVE METHOD THEREOF” (Shanghai Youseen New Medicine Exploition Co., Ltd, priority 2006, published 2010).

Assay: Choice of the pH value (HPLC peak area of Forsythiaside)
Format: physicochemical
Settings: for Peak Area: HPLC peak area of Forsythiaside in water
Text: Taking appropriate amount of Forsythiaside, adding water to it for dissolution. Adjusting the pH value to 3.0, 3.5, 4.0, 4.5, 5.0, 5.5, 6.0 separately, then determining the peak area value of Forsythiaside at different pH value by HPLC to investigate the influence on the content of Forsythiaside caused by different pH value.

Peak Area (pH Value 3.0): 1410.0 | Peak Area (pH Value 3.5): 1499.0 | Peak Area (pH Value 4.0): 1519.8 | Peak Area (pH Value 4.5): 1523.1 | Peak Area (pH Value 5.0): 1494.5 | Peak Area (pH Value 5.5): 1480.6 | Peak Area (pH Value 6.0): 1423.5 | content of Forsythiaside at different pH value (pH value 3.0-6.0): not sufficiently varied | content of Forsythiaside at different pH value (pH value 4.5): highest content
Substance: Forsythiaside
